Series [1] is described as follows: Ames test for potential genotoxicity.
The nature of series [2]: Injection site tolerance in the IM efficacy study in African cattle. The series is classed as in vivo. Particulars: free base in Kolliphor EL, NMP, 2-pyrrolidone, 11% water. Here is the method: Compound 2 was only partially curative for cattle infected with T. congolense following two doses (1/4 and 2/4 in different treatment arms), administered 15 h apart (Table 4, Table S8, and Figure S9a). The curative regimen aligned well with PK/PD data from mice. However, cattle infected with T. vivax and dosed IM were not cured despite the fact that PK data from some T. vivax-infected cattle (Table 4, Table S9, and Figure S9b) predicted that a dosing at this level should have been curative based on mouse data. This lack of efficacy at exposures expected to deliver a cure is even more perplexing when the metabolism of compound 2 is considered. […] The rate and extent of this metabolism is higher in T. vivax-infected animals compared to those infected with T. congolense (Table S10) for reasons that are not clear.

In another series the test system is T. congolense. Kind of series: Microcalorimetry of parasite growth. The format is cell-based, Trypanosoma congolense. Here is the method:
These observations offer confidence that rats can be used as a model animal in the drug development path going forward prior to studies in cattle. Exposure following IM injection in rats was sufficient to warrant progression to cattle efficacy studies, although the short half-life raised concerns that the required time above the EC99 blood concentration may not be sufficient for cure following a single IM dose at 10 mg/kg.

A further series concerns T. vivax. Kind of series: Cattle efficacy for compound 2, intramuscular (CIRDES), T. vivax. The series is classed as in vivo, Trypanosoma vivax. Here is the method:
Compound 2 was progressed into IM efficacy studies dosing at 10 mg/kg either once or twice, 15 h apart, in cattle infected with T. congolense or T. vivax. […]
3.5 Cattle efficacy for compound 2, intramuscular (CIRDES)
Felani-zebu cattle were housed in a fly-proof facility, acclimatised for 15 d prior to the study, cattle were treated with an anthelmintic, an ectoparasiticide and an antibiotic. Donor animals were infected with stabilates (frozen stocks) of either T. congolense KOT256 (resistant to 7 mg/kg diminazene in cattle) or T. vivax Gando Bongaly (resistant to diminazene 7 mg/kg and to isometamidium 1 mg/kg […]
in cattle). Blood from the donor animals, diluted with phosphate buffered glucose was used to infect recipient animals IV via the jugular vein. Infection was with approximately 100,000 fresh viable parasites. The compounds were given IM. Each injection was up to 10 mL and given in neck in the following order: left anterior third, right anterior third, left posterior third and right posterior third.
Animals over 240 kg required a fifth injection site for the IVP, and this was given in the left or right hind leg. Cattle were randomised to treatments. Parasitaemia was monitored 3 times per calendar week, though collection of blood and assessment of clinical symptoms. Blood samples were also […]
treatment). […]

Series [3] has as its system T. brucei CRK12 (Tb927.11.12310) edited parasites. Kind of series: Sensitivity of CRISPR-Cas9-edited CRK12 T. brucei compared to wild-type. The format is cell-based, Trypanosoma brucei. An excerpt: Three unbiased and independent approaches converged to identify CRK12 as the likely target of compound 2. Next, we used CRISPR-Cas9 precision base editing to interrogate the role of CRK12-related mutations in resistance.[16] A codon-targeted saturation mutagenesis strategy was used to investigate mutations that could support resistance to compound 2 at positions 482 or 492. This was achieved using repair templates randomized (NNN) in these specific positions. […] These edited parasites were 133-fold less sensitive to compound 2 compared to wild-type parasites. In contrast, several different amino acids (Ile, Gln, Met, and Val) were tolerated in position 492. Each mutation conferred differing levels of resistance to compound 2, for instance, parasites bearing a Gly492Val edit were eightfold more tolerant to the compound than wild-type cells, while a Gly492Gln mutation led to 32-fold resistance (Figure 4B); parasites bearing a Gly492Ile or a Gly492Met edit behaved similarly to parasites bearing a Gly492Gln edit. […] This is most likely explained by the pronounced growth defect associated with all three of our resistant clones (R1–3) that harbor this specific mutation. […]
overall quality score (QUAL) was >100. Artemis13 was used to analyse chromosome and gene copy number variation (CNV), as well as visualisation of SNPs.
4.3 RIT-seq screening, Illumina sequencing and analysis
The RIT-seq library screening was performed as described previously.14 The RNAi library was maintained with blasticidin (1 µg ml-1) and phleomycin (1 µg ml-1) at a minimum of 2 x 10^7 cells. […]
Reads were mapped to the T. brucei 927 reference genome (v39; TriTrypDB [http://tritrypdb.org/]) using Bowtie 2 software,10 with the following parameter: --very-sensitive-local. Following manipulation with SAMtools11 the alignment files were searched with a custom script to identify reads with the following barcode: GCCTCGCGA.14 The total and barcoded reads were then quantified using the Artemis genome browser.15 […]

Structures are written as SMILES. Marks after values point to notes of the source that are not given here.

Take `CC(C)CS(=O)(=O)N[C@H]1CC[C@H](Nc2nc(N)c(C(=O)c3c(F)cccc3F)s2)CC1` [Compound 1, N-((trans)-4-((4-Amino-5-(2,6-difluorobenzoyl)thiazol-2-yl)amino)cyclohexyl)-2-methylpropane-1-sulfonamide]: the Ames result in series [1] was “negative”.

For `CC(C)CS(=O)(=O)N[C@H]1CC[C@H](Nc2nc(N)c(C(=O)c3c(F)cc(CN(C)C)cc3F)s2)CC1` [Compound 2, N-(trans)-[4-[[4-Amino-5-[4-(dimethylaminomethyl)-2,6-difluoro-benzoyl]thiazol-2-yl]amino]cyclohexyl]-2-methyl-propane-1-sulfonamide], the Injection site tolerance entry in series [2] is given as “injection site tolerance issues”. Also, the “Effect on parasites, microcalorimetry” value with T. congolense (10 ng/mL) is listed as “slowed parasite growth”; in the series on T. congolense (30 ng/mL) it was “rapid kill”; with T. congolense (100 ng/mL), “rapid kill”. The efficacy in the series on T. vivax (T5, 10 mg/kg IM once) is given as 0/5 ^a; with T. vivax (T6, 10 mg/kg IM twice, 15 h apart) it was 0/3 ^a; in the series on T. vivax (T9, saline twice, followed by compound 2 rescue dose twice IM 4 days later) it was 0/2 ^a. Also, the “Efficacy, individual animals” value with T. vivax (T5 dosed once IM, animals 1907, 1918, 1932, 1933, 1940) was “No”; in the series on T. vivax (T6 dosed twice IM, animals 1902, 1926, 1929), “No”; in the series on T. vivax (T9 after 2 (rescue IM), animals 1931, 1934), “No and no”. For the same molecule, the Cattle cured entry in the series on T. vivax (T. vivax-infected cattle, 10 mg/kg IM once or twice, 10 mg/kg) was “none and not cured”. In addition, in series [3] (CRK12 Gly492Gln edit), the “Resistance compared to wild-type” value is 32 fold. In addition, the “Tolerance compared to wild-type” value in series [3] (CRK12 Gly492Val edit) was “eightfold”. Also, the “Loss of sensitivity compared to wild-type” value in series [3] (CRK12 Leu482Phe edit) is listed as 133 fold.
